Publication PMC11500415, “Chemical inhibition of stomatal differentiation by perturbation of the master-regulatory bHLH heterodimer via an ACT-Like domain” (Nature Communications, 2024)
Where two headings read alike, the source gives them in different places.

Legend:
[1] = biological target: T1, MUTE_ACTL (Arabidopsis thaliana, UniProt Q9M8K6); test: BLI direct binding; parameters: species or system A. thaliana; details: for binding to MUTE by BLI (in words): BLI (Supplementary Table 3); for Kd: MUTE_ACTL
T1 construct: MUTE-ACTL (114-202); made in house; host or cells: E. coli BL21
T1 sequence (Q9M8K6 114-202): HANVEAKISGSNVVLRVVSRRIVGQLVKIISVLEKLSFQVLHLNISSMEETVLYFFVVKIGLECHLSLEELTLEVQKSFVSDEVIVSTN
Text: (§1) A. thaliana SCRM (1-494), ΔNSPCH (98-364), MUTE (1-202), ΔNFAMA (190-414), MUTEΔC (1-114), MUTER133A_R134A, MUTEE162A_E163A, MUTER133A_R134A_E162A_E163A, SCRM-ACTL (405-494), MUTE-ACTL (114-202), SPCH-ACTL (285-364), FAMA-ACTL (306-414), MUTE_ACTLR133A_R134A, MUTE_ACTLE162A_E163A, MUTE_ACTLR133A_R134A_E162A_E163A were cloned into pGEX-4T-1 vector with an N-terminal GST tag and a thrombin cleavage sequence. For protein expression, the constructs were transformed into E. coli strain BL21. For each transformant, a single colony was selected and incubated in 10 ml LB liquid media. The overnight-incubated E. coli suspensions were transferred to 1 L LB medium and incubated at 37 °C for around 2 h until the OD600 reached 0.4–0.6. The isopropyl β-D-1-thiogalactopyranoside ([…] of final concentration) was added to the cultures and the strains were incubated at 22 °C for a further 18 h. GST-fused proteins were purified using glutathione agarose resin. The soluble portion of the cell lysate was loaded onto a GST-Sepharose column. Nonspecifically bound proteins were removed by washing the column with 20 mM Tris pH 8.0, 200 mM NaCl. The bound GST-fused protein was eluted with 10 mm glutathione and 20 mM Tris pH 8.0, 200 mM NaCl. The GST-fused proteins were exchanged with phosphate-buffered saline buffer, and then the solution was treated with 50 μg of thrombin for 10–12 h at 16 ^οC. The GST portion of the protein was cleaved during thrombin digestion, and then the whole solution was reloaded onto the glutathione S-transferase column to obtain pure protein. The purified proteins were further purified by gel filtration on a Superdex-200 (GE) column using fast protein liquid chromatography and phosphate buffer (pH 7.2) as the eluent. The purity of the protein was checked by SDS-PAGE. For detailed lists of oligo DNA and plasmid information, see Supplementary Tables 5, 6, respectively.
The binding affinities of SCRM to MUTE / MUTER133A_R134A / MUTEE162A_E163A / MUTER133A_R134A_E162A_E163A in presence and absence of Stomidazolone (3) and its analogues (AYSJ1059 (5) and AYSJ1061 (6)), and Stomidazolone / AYSJ1059 / AYSJ1061 interactions with GST-tagged SCRM, MUTE, SPCH, FAMA, MUTE ΔACTL, MUTE_ACTL, SCRM_ACTL, SPCH_ACTL and FAMA_ACTL, MUTER133A_134A, MUTEE162A_E163A, MUTER133A_R134A_E162A_E163A were measured using the Octet Red96 system (ForteBio, Pall Life Sciences) following the manufacturer’s protocols. The optical probes coated with anti-GST were first loaded with 500 nM GST tagged proteins before kinetic binding analyses. The experiment was performed in 96-well plates maintained at 30 °C. Each well was loaded with 200 μL reaction volume for the experiment. The binding buffer used in these experiments contained 1× PBS supplemented with 2% DMSO, 0.02% Tween20. […] There was no binding of the analytes to the unloaded probes as shown by the control wells. Binding kinetics to all seven concentrations of the analytes were measured simultaneously using default parameters on the instrument. The data were analyzed using the Octet data analysis software. The association and dissociation curves were fit with the 1:1 homogeneous ligand model. The kobs (observed rate constant) values were used to calculate Kd, with steady-state analysis of the direct binding. See Supplementary Table 3 for details.

[2] = biological target: T1, MUTE_ACTL; test: ITC direct binding; parameters: species or system A. thaliana; details: ITC (Supplementary Fig. 8, Supplementary Table 2)
Text: as §1
Binding of the small molecule Stomidazolone (3) to SCRM, MUTE, SPCH, FAMA, MUTEΔC, MUTE_ACTL, SCRM_ACTL, SPCH_ACTL and FAMA_ACTL, MUTER133A_R134A, MUTEE162A_E163A, MUTER133A_R134A_E162A_E163A, as well as SCRM binding to MUTE in the presence and absence of Stomidazolone (3) / AYSJ1059 (5) /AYSJ1061 (6) was characterized at 30 °C using a Malvern PEAQ-ITC microcalorimeter. All the protein samples were dialyzed overnight using PBS buffer containing 2% DMSO and 1 mM DTT. Stomidazolone was dissolved in PBS buffer containing 2% DMSO and 1 mM DTT. Titrations were performed by injecting 1 × 0.5-μL and 12 × 3-μL or 1 × 0.75-μL and 18 × 2-μL or 1 × 0.2-μL and 25 × 1.3-μL aliquots of 1 mM Stomidazolone / AYSJ1059 / AYSJ1061 to 5-30 μM of protein in PBS buffer pH 7.4, containing 2% DMSO and 1 mM DTT. All titrations were carried out at least twice. The raw data were corrected using buffer and protein controls and analyzed using the software supplied by the manufacturer. See Supplementary Table 3 for details.

[3] = BLI steady state, read-out: KD (SS)

Row | Compound | binding to MUTE by BLI (in words) [1] | Kd [1, 3] [µM] | Kd ([1]; BLI, read-out: KD) [µM] | binding to MUTE analyzed by ITC (in words) [2]
1 | Cc1ccc(C2(NS(=O)(=O)c3ccccc3)N=C(c3ccccc3)C(=O)N2S(=O)(=O)c2ccccc2)cc1 (centres unmarked) [AYSJ1059] | substantially weak binding | 126 ± 13.5 | 123 ± 6.5 | no binding
2 | O=C1C(c2ccccc2)=NC(NS(=O)(=O)c2ccccc2)(c2ccc(Br)cc2)N1S(=O)(=O)c1ccccc1 (centres unmarked) [AYSJ1061] | substantially weak binding | 139 ± 9.5 | 135 ± 5.5 | no binding
